Reference: ChEMBL document CHEMBL1150823, “Two bioactive saponins from Albizia subdimidiata from the Suriname rainforest” (J Nat Prod, 2001)
Converted amounts (≈) assume the structure as drawn.

Assays:
Saccharomyces cerevisiae [1] = experiment: DNA damaging activity against Saccharomyces cerevisiae 1138 assessed as concentration required to produce 12 mm zone of inhibition; assay type: functional
A2780 = experiment: Cytotoxicity against human A2780 cells; assay type: functional, cell-based
Saccharomyces cerevisiae [2] = experiment: DNA damaging activity against Saccharomyces cerevisiae 1140 assessed as concentration required to produce 12 mm zone of inhibition; assay type: functional
Saccharomyces cerevisiae [3] = experiment: DNA damaging activity against Saccharomyces cerevisiae 1353 assessed as concentration required to produce 12 mm zone of inhibition; assay type: functional
Saccharomyces cerevisiae [4] = experiment: DNA damaging activity against Saccharomyces cerevisiae Sc7 assessed as concentration required to produce 12 mm zone of inhibition; assay type: functional

SMILES | Activity (Saccharomyces cerevisiae [1]) | IC50 (A2780) | Activity (Saccharomyces cerevisiae [2]) | Activity (Saccharomyces cerevisiae [3]) | Activity (Saccharomyces cerevisiae [4])
CC(=O)N[C@H]1[C@H](O[C@H]2CC[C@]3(C)[C@H]4CC=C5[C@@H]6CC(C)(C)CC[C@]6(C(=O)O)CC[C@@]5(C)[C@]4(C)CC[C@H]3C2(C)C)O[C@H](CO[C@@H]2OC[C@H](O)[C@H](O)[C@H]2O[C@@H]2OC[C@H](O)[C@H](O)[C@H]2O)[C@@H](O)[C@@H]1O | 25 µg/mL | 0.8 µg/mL (≈ 0.866 µM) | 40 µg/mL | 30 µg/mL | 45 µg/mL
CC(=O)N[C@H]1[C@H](O[C@H]2CC[C@]3(C)[C@H]4CC=C5[C@@H]6CC(C)(C)CC[C@]6(C(=O)O)CC[C@@]5(C)[C@]4(C)CC[C@H]3C2(C)C)O[C@H](CO[C@@H]2OC[C@H](O)[C@H](O)[C@H]2O[C@@H]2OC[C@@H](O)[C@H](O)[C@H]2O)[C@@H](O)[C@@H]1O [ALBIZIATRIOSIDE A] | 30 µg/mL | 0.9 µg/mL (≈ 0.974 µM) | 35 µg/mL | 35 µg/mL | 30 µg/mL
